What all share (type): cell-based
Assay [1] addresses adenosine A2b receptor (A2bR) (Homo sapiens (Human), UniProt P29275). Description: Inhibition of adenosine A2b receptor cAMP signaling pathway (HTRF cAMP, CHO-K1/A2bR cells). The conditions noted are these: Table 3. Put shortly:
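CHO-K1 cells expressing human A2bR were preincubated with compound (0-100000 nM final) for 30 min at room temperature in HEPES/BSA buffer with rolipram and adenosine deaminase. They were then stimulated with 1 μM […] for 30 min. Intracellular cAMP was measured by HTRF after 1 h detection.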

For assay [2], the target named is adenosine A1 receptor (A1R) (Homo sapiens (Human), UniProt P30542). Description: Inhibition of adenosine A1 receptor cAMP signaling pathway (HTRF cAMP, CHO-K1/A1R cells). The conditions noted are these: Table 2. The source says: (§1) Test Example 1. Determination of the inhibition activity of the compounds of the present invention on the adenosine A2a receptor (A2aR) cAMP signaling pathway, the adenosine A2b receptor (A2bR) cAMP signaling pathway, the adenosine A1 receptor (A1R) cAMP signaling pathway and the adenosine A3 receptor (A3R) cAMP signaling pathway.
(§2) The inhibition activity of the compounds of the present invention on the adenosine A2a receptor cAMP signaling pathway, the adenosine A2b receptor cAMP signaling pathway, the adenosine A1 receptor cAMP signaling pathway and the adenosine A3 receptor cAMP signaling pathway was determined by the following method. The experimental method is briefly described as follows:
2.2 Adenosine A1 receptor
(§3) CHO-K1/A1R cells were cultured in DMEM/F12 medium containing 10% fetal bovine serum and 1 mg/ml G418. The cells were digested with the cell separation buffer during the experiment. The cells were then resuspended in the balanced salt buffer containing 20 mM HEPES and 0.1% bovine serum albumin and counted, and the cell density was adjusted to 5×10^5 cells/ml. In the 384-well plate, each well was added with 12.5 μl of cell suspension, and 6.25 μl of test compound (4× concentration) formulated with the balanced salt buffer containing 20 mM HEPES, 0.1% bovine serum albumin, 54 μM rolipram and 2.7 U/ml adenosine deaminase, and the plate was incubated at room temperature for 30 minutes. Each well was then added with 6.25 μl of forskolin and N6-cyclopentyladenosine (4× concentration) formulated with the balanced salt buffer containing 20 mM HEPES, 0.1% bovine serum albumin, 54 μM rolipram and 2.7 U/ml adenosine deaminase, and the plate was incubated at room temperature for 30 minutes. The final concentrations of the compounds were: 100000, 10000, 1000, 100, 10, 1, 0.1 and 0 nM. The final concentration of forskolin was 10 μM. The final concentration of CPA was 10 nM. Intracellular cAMP concentration was detected with the cAMP dynamic 2 kit. cAMP-d2 and Anti-cAMP-Eu-Cryptate were diluted respectively with the cAMP lysis buffer at a ratio of 1:4. Each well was added with 12.5 μl of diluted cAMP-d2, followed by addition of 12.5 μl of diluted Anti-cAMP-Eu-Cryptate, and the plate was incubated at room temperature in the dark for 1 hour. The HTRF signal values were read by the PHERAstar multi-function microplate reader.

The target of assay [3] is adenosine A2a receptor (A2aR) (Homo sapiens (Human), UniProt P29274). Description: Inhibition of adenosine A2a receptor cAMP signaling pathway (HTRF cAMP, CHO-K1/A2aR cells). Put shortly: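 CHO-K1 cells expressing human A2aR, preincubated 30 min at room temperature with compound (10000–0.001024 nM final) in HEPES/BSA buffer with rolipram and adenosine deaminase, then stimulated 30 min with […] (20 nM final). Intracellular cAMP read by HTRF after 1 h lysis/detection.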

The target in assay [4] is adenosine A3 receptor (A3R) (Homo sapiens (Human), UniProt P0DMS8). Description: Inhibition of adenosine A3 receptor cAMP signaling pathway (HTRF cAMP, CHO-K1/A3R cells). The conditions noted are these: Table 2.
Text: as §1, §2
2.3 Adenosine A3 receptor
as §3, with “CHO-K1/A3R cells were” for “CHO-K1/A1R cells were”, “serum and 10 μg/ml puromycin. The cells” for “serum and 1 mg/ml G418. The cells”, “cells were resuspended in” for “cells were then resuspended in”, “forskolin and 2Cl-IB-MECA (4× concentration)” for “forskolin and N6-cyclopentyladenosine (4× concentration)”, “concentration of 2Cl-IB-MECA was 5” for “concentration of CPA was 10”, “2Cl-IB-MECA was 5 nM. Intracellular” for “CPA was 10 nM. Intracellular”

These results are taken from patent publication US11312705B2, “Heteroaryl[4,3-C]pyrimidine-5-amine derivative, preparation method therefor, and medical uses thereof” (Jiangsu Hengrui Medicine Co., Ltd., priority 2017, dated 2022).

Where only a bound is given, the exact number is not on record here.

Sequence of adenosine A2a receptor (A2aR) (P29274 whole entry): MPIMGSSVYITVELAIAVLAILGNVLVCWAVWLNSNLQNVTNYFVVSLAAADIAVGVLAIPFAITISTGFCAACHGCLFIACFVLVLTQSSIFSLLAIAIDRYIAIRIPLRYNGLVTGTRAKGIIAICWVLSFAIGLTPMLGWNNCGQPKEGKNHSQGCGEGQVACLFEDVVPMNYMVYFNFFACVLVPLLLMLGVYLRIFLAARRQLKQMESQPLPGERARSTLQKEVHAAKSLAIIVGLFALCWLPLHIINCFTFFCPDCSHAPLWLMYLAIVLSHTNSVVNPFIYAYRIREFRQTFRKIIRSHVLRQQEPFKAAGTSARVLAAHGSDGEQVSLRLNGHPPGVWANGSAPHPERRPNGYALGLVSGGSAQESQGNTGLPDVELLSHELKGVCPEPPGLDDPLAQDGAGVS
Sequence of adenosine A2b receptor (A2bR) (P29275 whole entry): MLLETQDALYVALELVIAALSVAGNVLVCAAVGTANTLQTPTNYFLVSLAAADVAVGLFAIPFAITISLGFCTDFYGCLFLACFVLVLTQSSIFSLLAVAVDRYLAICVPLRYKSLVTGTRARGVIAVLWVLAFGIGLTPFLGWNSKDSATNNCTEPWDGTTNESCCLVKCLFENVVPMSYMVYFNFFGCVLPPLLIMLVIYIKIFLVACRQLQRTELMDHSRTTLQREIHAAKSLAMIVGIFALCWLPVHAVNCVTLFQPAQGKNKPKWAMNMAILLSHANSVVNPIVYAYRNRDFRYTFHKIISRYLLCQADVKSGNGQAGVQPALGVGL
Sequence of adenosine A3 receptor (A3R) (P0DMS8 whole entry): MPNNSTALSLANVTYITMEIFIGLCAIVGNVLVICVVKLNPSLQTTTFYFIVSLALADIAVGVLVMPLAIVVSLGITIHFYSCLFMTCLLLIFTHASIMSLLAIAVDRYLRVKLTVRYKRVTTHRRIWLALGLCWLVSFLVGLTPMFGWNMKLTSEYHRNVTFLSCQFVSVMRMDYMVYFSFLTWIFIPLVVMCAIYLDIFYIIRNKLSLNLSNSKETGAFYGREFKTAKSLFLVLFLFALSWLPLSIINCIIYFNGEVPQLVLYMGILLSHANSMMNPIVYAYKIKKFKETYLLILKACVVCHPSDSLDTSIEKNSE
Sequence of adenosine A1 receptor (A1R) (P30542 whole entry): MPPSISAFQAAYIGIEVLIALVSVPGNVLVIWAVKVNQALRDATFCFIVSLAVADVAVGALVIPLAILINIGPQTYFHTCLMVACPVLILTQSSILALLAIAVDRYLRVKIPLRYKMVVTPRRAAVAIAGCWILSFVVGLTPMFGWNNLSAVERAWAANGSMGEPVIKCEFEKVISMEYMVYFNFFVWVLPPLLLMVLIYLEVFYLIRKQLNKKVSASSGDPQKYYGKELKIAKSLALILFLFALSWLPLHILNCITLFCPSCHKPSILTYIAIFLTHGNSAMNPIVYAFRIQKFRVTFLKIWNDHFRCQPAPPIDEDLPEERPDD

Turning to `Cc1cc(-c2c(-c3ccc(Cl)cc3F)nc(N)n3cnnc23)cc(C(F)F)n1` [Example 59, 7-(4-Chloro-2-fluorophenyl)-8-(2-(difluoromethyl)-6-methylpyridin-4-yl)-[1,2,4]triazolo[4,3-c]pyrimidin-5-amine], the IC50 in assay [1] (CHO-K1/A2bR cells, ethyl carbazole 1 μM, cAMP HTRF) is 884 nM; in assay [2] (CHO-K1/A1R cells, forskolin 10 μM, CPA 10 nM, cAMP HTRF), 1010 nM; in assay [3] (Table 1, ethyl carbazole 20 nM), 3.05 nM; in assay [3] (Table 2, ethyl carbazole 20 nM) it was 3.05 nM; in assay [3] (Table 3, ethyl carbazole 20 nM), 3.05 nM; in assay [4] (CHO-K1/A3R cells, forskolin 10 μM, 2Cl-IB-MECA 5 nM, cAMP HTRF), over 10000 nM. Further, the “IC50 ratio (A2bR/A2aR)” value in assay [1] (selectivity A2bR over A2aR) came out at 290. Besides, the “IC50 ratio (A1R/A2aR)” value in assay [2] (selectivity A1R over A2aR) was 330. For the same molecule, the “IC50 ratio (A3R/A2aR)” value in assay [4] is given as >10^3.
